One experiment has as its target T1, AQ STING (G230A-R293Q) (Homo sapiens, UniProt Q86WV6, G230A/H232R/R293Q).
T1 construct: truncated human WT STING or AQ STING (amino acid residues 140-343); 8xHis (N, cleaved yes); SUMO (N, cleaved yes); made in house; host or cells: E. coli Rosetta-gami B (DE3)
In words: Differential Scanning Fluorimetry with AQ STING. Conditions: thermal shift vs STING apoprotein; 150 μM CDN; 0.1 mg/ml truncated human AQ STING; SYPRO Orange; read-out: DSF ΔTm (° C.) AQ STING. In kind it is binding.

The target in experiment [1] is T2, WT STING (Homo sapiens, UniProt Q86WV6, H232R). In words: Digitonin assay using 293T wtSTING-FL reporter cells. In kind it is cell-based. Conditions: 293T wtSTING-FL cells; 30 minutes in Digitonin buffer, then 5 hours; ISRE firefly luciferase reporter; 8-point dose-response curve; read-out: Digitonin assay EC50 (μmol · l^−1) WT STING.
Target sequence in this assay (Q86WV6 whole entry H232R, the tested form may be a part): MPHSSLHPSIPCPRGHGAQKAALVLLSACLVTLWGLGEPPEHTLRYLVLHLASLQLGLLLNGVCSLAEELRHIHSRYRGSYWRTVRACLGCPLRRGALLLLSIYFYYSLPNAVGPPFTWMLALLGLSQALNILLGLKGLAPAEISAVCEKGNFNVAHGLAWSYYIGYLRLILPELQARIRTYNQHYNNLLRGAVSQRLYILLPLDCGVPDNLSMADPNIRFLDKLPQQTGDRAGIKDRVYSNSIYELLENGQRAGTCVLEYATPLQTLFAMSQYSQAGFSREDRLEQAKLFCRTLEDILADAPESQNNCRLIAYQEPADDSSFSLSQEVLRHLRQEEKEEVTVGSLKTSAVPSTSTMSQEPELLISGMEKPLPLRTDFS
For experiment [2], the target named is T2, WT STING. The experiment in a line: Differential Scanning Fluorimetry with WT STING. More on the design: truncated human WT STING or AQ STING (amino acid residues 140-343); 8xHis (N, cleaved yes); SUMO (N, cleaved yes); made in house; host or cells: E. coli Rosetta-gami B (DE3). The experiment is classed as binding. Conditions: thermal shift vs STING apoprotein; 150 μM CDN; 0.1 mg/ml truncated human WT STING; SYPRO Orange; read-out: DSF ΔTm (° C.) WT STING.
Target sequence in this assay (Q86WV6 140-343 H232R): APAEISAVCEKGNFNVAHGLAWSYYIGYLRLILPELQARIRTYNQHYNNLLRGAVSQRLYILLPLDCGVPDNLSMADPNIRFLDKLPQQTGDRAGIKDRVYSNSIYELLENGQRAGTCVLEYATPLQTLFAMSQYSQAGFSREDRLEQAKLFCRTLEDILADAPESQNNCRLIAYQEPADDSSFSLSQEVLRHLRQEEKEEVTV

Here are results for seven compounds from patent US11203610B2, “2′3′ cyclic dinucleotides with phosphonate bond activating the sting adaptor protein” (INSTITUTE OF ORGANIC CHEMISTRY AND BIOCHEMISTRY ASCR, V.V.I., priority 2017, dated 2021).

T1 sequence (Q86WV6 140-343 G230A/H232R/R293Q): as the sequence (Q86WV6 140-343 H232R) above, with G91A, R154Q counted along it

In the case of `Nc1nc2c(ncn2[C@@H]2C[C@@H]3COP(=O)(O)O[C@@H]4[C@@H](OCP(=O)(O)O[C@@H]2[C@@H]3O)O[C@@H](n2cnc3c(N)ncnc32)[C@@H]4O)c(=O)[nH]1` [Compound 36, (1S,6R,8R,9R,10S,15R,17R,18R)-17-(2-amino-6-oxo-6,9-dihydro-1H-purin-9-yl)-8-(6-amino-9H-purin-9-yl)-3,9,12,18-tetrahydroxy-2,5,7,11,13-pentaoxa-3λ^5,12λ^5-diphosphatricyclo[13.2.1.0^6,10]octadecane-3,12-dione], the figures for the ΔTm at 150 µM on AQ STING (G230A-R293Q) and on WT STING [2] were 14.2 °C and 5.8 °C, respectively. For the same compound, at WT STING [1], the EC50 is 180 nM.

For `CNc1ncnc2c1ncn2[C@@H]1O[C@@H]2COP(=O)(O)O[C@@H]3[C@H](O)[C@@H](OCP(=O)(O)O[C@H]2[C@H]1O)O[C@H]3n1cnc2c(=O)[nH]c(N)nc21` [Compound 49, (1R,6R,8R,9R,10S,15R,17R,18S)-17-(2-amino-6-oxo-6,9-dihydro-1H-purin-9-yl)-3,9,12,18-tetrahydroxy-8-[6-(methylamino)-9H-purin-9-yl]-2,4,7,11,14,16-hexaoxa-3λ^5,12λ^5-diphosphatricyclo[13.2.1.0^6,10]octadecane-3,12-dione], the thermal shift (ΔTm) at 150 µM on AQ STING (G230A-R293Q) was 9.3 °C; at WT STING [2] it was 3.8 °C. Further, the EC50 at WT STING [1] worked out at 150 nM.

In the case of `Nc1nc2c(ncn2[C@@H]2O[C@@H]3COP(=O)(O)O[C@@H]4[C@@H](OCP(=O)(O)O[C@@H]2C3)O[C@@H](n2cnc3c(N)ncnc32)[C@@H]4O)c(=O)[nH]1` [Compound 38, (1R,6R,8R,9R,10S,15S,17R)-17-(2-amino-6-oxo-6,9-dihydro-1H-purin-9-yl)-8-(6-amino-9H-purin-9-yl)-3,9,12-trihydroxy-2,5,7,11,13,16-hexaoxa-3λ^5,12λ^5-diphosphatricyclo[13.2.1.0^6,10]octadecane-3,12-dione], the ΔTm at 150 µM on AQ STING (G230A-R293Q) is 16.2 °C; on WT STING [2], 8.2 °C. For the same compound, on WT STING [1], the EC50 amounted to 50 nM.

As for `Nc1nc2c(ncn2[C@@H]2O[C@@H]3OCP(=O)(O)O[C@H]4[C@@H](O)[C@H](n5ccc6c(N)ncnc65)O[C@@H]4COP(=O)(O)O[C@@H]2[C@@H]3O)c(=O)[nH]1` [Compound 47, (1R,6R,8R,9R,10S,15R,17R,18S)-17-(2-amino-6-oxo-6,9-dihydro-1H-purin-9-yl)-8-{4-amino-7H-pyrrolo[2,3-d]pyrimidin-7-yl}-3,9,12,18-tetrahydroxy-2,4,7,11,14,16-hexaoxa-3λ^5,12λ^5-diphosphatricyclo[13.2.1.0^6,10]octadecane-3,12-dione], the results for the thermal shift (ΔTm) at 150 µM at AQ STING (G230A-R293Q) and at WT STING [2] were 10.8 °C and 3.4 °C, respectively. Also, the EC50 at WT STING [1] was found to be 100 nM.

In the case of `Nc1nc2c(ccn2[C@@H]2O[C@@H]3COP(=O)(O)O[C@@H]4[C@@H](OCP(=O)(O)O[C@@H]2[C@@H]3O)O[C@@H](n2cnc3c(N)ncnc32)[C@@H]4O)c(=O)[nH]1` [Compound 41, (1R,6R,8R,9R,10S,15R,17R,18R)-17-{2-amino-4-oxo-3H,4H,7H-pyrrolo[2,3-d]pyrimidin-7-yl}-8-(6-amino-9H-purin-9-yl)-3,9,12,18-tetrahydroxy-2,5,7,11,13,16-hexaoxa-3λ^5,12λ^5-diphosphatricyclo[13.2.1.0^6,10]octadecane-3,12-dione], the ΔTm at 150 µM was determined as 9.1 °C on AQ STING (G230A-R293Q) and 1.7 °C on WT STING [2]. For the same compound, the concentration for a half-maximal effect (EC50) at WT STING [1] was 1900 nM.

As to `Nc1nc2c(ncn2[C@@H]2O[C@@H]3OCP(=O)(O)O[C@@H]4[C@@H](OCP(=O)(O)O[C@@H]2[C@@H]3O)O[C@@H](n2cnc3c(N)ncnc32)[C@@H]4O)c(=O)[nH]1` [Compound 44, (1R,6R,8R,9R,10S,15R,17R,18S)-17-(2-amino-6-oxo-6,9-dihydro-1H-purin-9-yl)-8-(6-amino-9H-purin-9-yl)-3,9,12,18-tetrahydroxy-2,5,7,11,14,16-hexaoxa-3λ^5,12λ^5-diphosphatricyclo[13.2.1.0^6,10]octadecane-3,12-dione], the figures for the ΔTm at 150 µM on AQ STING (G230A-R293Q) and at WT STING [2] were 10.3 °C and 2.6 °C, respectively. In addition, the concentration giving a half-maximal response (EC50) at WT STING [1] worked out at 330 nM.

Take `Nc1ncnc2c1ncn2[C@@H]1O[C@@H]2COP(=O)(O)O[C@@H]3[C@H](O)[C@@H](COCP(=O)(O)O[C@H]2[C@H]1F)O[C@H]3n1cnc2c(N)ncnc21` [Compound 33, (1R,6R,8R,9R,10R,16R,18R,19R)-8,18-bis(6-amino-9H-purin-9-yl)-9-fluoro-3,12,19-trihydroxy-2,4,7,11,14,17-hexaoxa-3λ^5,12λ^5-diphosphatricyclo[14.2.1.0^6,^10]nonadecane-3,12-dione]: the results for the ΔTm at 150 µM on AQ STING (G230A-R293Q) and on WT STING [2] were 8.3 °C and 1.6 °C, respectively. The EC50 on WT STING [1] was 2600 nM.
